Test results published in patent publication US6864363B2 (priority 2000, dated 2005).
Numbered stars: 1 amine (or outer) side, 2 acyl side, 3 side chain; on linkers, the order of the positions; unused ones are H or OH. Peptide text beside a SMILES is read from it. * marks the point of attachment. pNA = O=[N+]([O-])c1ccc(N*)cc1; Suc = O=C(CCC(=O)[*:2])[*:1]; Cbz = O=C(OCc1ccccc1)*

The compounds below were run on P. gingivalis DPP-7 (assay: not given). Conditions: not given.
Format: biochemical, Porphyromonas gingivalis

Question: How did the “% of residual activity” value turn out when `O=C(O)CI` [Iodoacetic acid] was run?
Answer: 102%

Question: And the “inactivation of / influence on DPP-7 activity (in words)” value?
Answer: not

Question: With `C[C@H](N)C(=O)NCC(=O)O` [Ala-Gly] (H-Ala-Gly-OH) as the compound, how does the “% of residual activity” value read?
Answer: 96%

Question: For `N[C@@H](CS)C(=O)O` [Cysteine], which “% of residual activity” value is on record?
Answer: 90%

Question: How did the “% of residual activity” value turn out when `O=c1oc(Cl)c(Cl)c2ccccc12` [3,4-dichloroisocoumarin] was run?
Answer: 0%

Question: And the “inactivation of / influence on DPP-7 activity (in words)” value?
Answer: inactivated

What follows are compounds tested on P. gingivalis DPP-7 (assay: Kinetic analysis of p-nitroanilide substrate cleavage by DPP-7). Conditions: 0.2 M HEPES, pH 7.8, 37° C.
Format: biochemical, Porphyromonas gingivalis
Procedure: Kinetic Analysis—Routinely, the dipeptidylpeptidase amidolytic activity was measured with H-Ala-Phe-pNA (1 mM) in 0.2 M HEPES, pH 7.8 at 37° C. The reaction was followed for specific time intervals in a thermostated ELISA reader (SpectraMax, Applied Biosystem) and the release of p-nitroaniline was monitored at 405 nm. Other p-nitroanilide substrates were used in the same manner. For inhibition studies, the enzyme was first preincubated with an inhibitor for 15 minutes at 37° C., substrate added, and residual activity recorded. The initial steady-state velocity (v0) was determined by continuous assay for the range of substrate concentrations (100 nM to 1 mM). Km and Vmax were determined by hyperbolic regression of the kinetic data using the software package Hyper Version 1.02 obtained from Dr. J. S. Easterby (University of Liverpool, UK).
Substrate Specificity—Among several chromogenic substrates tested, only those with an aliphatic or an aromatic side chain residues in the second, penultimate position were rapidly hydrolyzed by DPP-7 (Table 2).

Question: What does the source list for `CC(N)C(=O)NC(C)C(=O)Nc1ccc([N+](=O)[O-])cc1.Cl` (stereo not drawn) [H-Ala-Ala-pNA] (H-Ala-Ala-pNA; configuration not given here)?
Answer: Km: 313 µM; Vmax: 129.65

Question: How did the Km turn out when `NCC(=O)NC(Cc1ccccc1)C(=O)Nc1ccc([N+](=O)[O-])cc1` (stereo not drawn) [H-Gly-Phe-pNA] was run?
Answer: 256 µM

Question: What about the Vmax of the same compound?
Answer: 54.54

Question: `C[C@H](N)C(=O)N[C@@H](Cc1ccccc1)C(=O)Nc1ccc([N+](=O)[O-])cc1` [H-Ala-Phe-pNA] was tested. Which Km did it give?
Answer: 441 µM

Question: What about the Vmax of the same compound?
Answer: 170.06

Same assay, conditions: p-nitroanilide substrates

Question: How did the “hydrolysis of chromogenic substrate by DPP-7” value (“hydrolysis” for short) turn out when `C[C@H](N)C(=O)N[C@@H](Cc1ccccc1)C(=O)N1CCC[C@H]1C(=O)Nc1ccc([N+](=O)[O-])cc1` [H-Ala-Phe-Pro-pNA] (H-Ala-Phe-Pro-pNA) was run?
Answer: none of these was hydrolysed

Question: How did the “hydrolysis” value turn out when `CC(C)C[C@H](N)C(=O)N[C@H](C(=O)N[C@@H](CCCNC(=N)N)C(=O)Nc1ccc([N+](=O)[O-])cc1)[C@@H](C)O` [H-Leu-Thr-Arg-pNA] (H-Leu-Thr-Arg-pNA) was run?
Answer: none of these was hydrolysed

Question: For `O=C(O)CC[C@H](NC(=O)OCc1ccccc1)C(=O)N[C@@H](CCC(=O)O)C(=O)Nc1ccc([N+](=O)[O-])cc1` [Z-Glu-Glu-pNA] (Cbz-Glu-Glu-pNA), which “hydrolysis” value is on record?
Answer: none of these was hydrolysed

Question: Which “hydrolysis” value does the source give for `C[C@H](NC(=O)OCc1ccccc1)C(=O)N[C@@H](C)C(=O)Nc1ccc([N+](=O)[O-])cc1` [Z-Ala-Ala-pNA] (Cbz-Ala-Ala-pNA) here?
Answer: none of these was hydrolysed

Question: With `NCCCC[C@H](NC(=O)CN)C(=O)Nc1ccc([N+](=O)[O-])cc1` [H-Gly-Lys-pNA] (H-Gly-Lys-pNA) as the compound, how does the “hydrolysis” value read?
Answer: none of these was hydrolysed

Question: How did the “hydrolysis” value turn out when `C[C@H](N)C(=O)N1CCC[C@H]1C(=O)Nc1ccc([N+](=O)[O-])cc1` [H-Ala-Pro-pNA] (H-Ala-Pro-pNA) was run?
Answer: none of these was hydrolysed

Question: For `CC(C)C[C@H](N)C(=O)Nc1ccc([N+](=O)[O-])cc1` [H-Leu-pNA], which “hydrolysis” value is on record?
Answer: none of these was hydrolysed

Question: For `NCCCC[C@H](NC(=O)OCc1ccccc1)C(=O)Nc1ccc([N+](=O)[O-])cc1` [Z-Lys-pNA], which “hydrolysis” value is on record?
Answer: none of these was hydrolysed

Question: Which “hydrolysis” value does the source give for `NCC(=O)Nc1ccc([N+](=O)[O-])cc1` [H-Gly-pNA] here?
Answer: none of these was hydrolysed

Question: `NCC(=O)N[C@@H](CCC(=O)O)C(=O)Nc1ccc([N+](=O)[O-])cc1` [H-Gly-Glu-pNA] (H-Gly-Glu-pNA) was tested. Which “hydrolysis” value did it give?
Answer: none of these was hydrolysed

Question: `CC[C@H](C)[C@H](N)C(=O)Nc1ccc([N+](=O)[O-])cc1` [H-Ile-pNA] was tested. Which “hydrolysis” value did it give?
Answer: none of these was hydrolysed

Question: With `Br.Br.NCCCC[C@H](N)C(=O)Nc1ccc([N+](=O)[O-])cc1` [H-Lys-pNA] as the compound, how does the “hydrolysis” value read?
Answer: none of these was hydrolysed

Question: `NCC(=O)N[C@@H](CCCN=C(N)N)C(=O)Nc1ccc([N+](=O)[O-])cc1` [H-Gly-Arg-pNA] (H-Gly-Arg-pNA) was tested. Which “hydrolysis” value did it give?
Answer: none of these was hydrolysed

Question: For `C[C@H](NC(=O)CCC(=O)O)C(=O)N[C@@H](C)C(=O)Nc1ccc([N+](=O)[O-])cc1` [N-suc-Ala-Ala-pNA] (Suc-Ala-Ala-pNA), which “hydrolysis” value is on record?
Answer: none of these was hydrolysed

Question: `C[C@H](N)C(=O)N[C@@H](C)C(=O)N[C@@H](Cc1ccccc1)C(=O)Nc1ccc([N+](=O)[O-])cc1` [H-Ala-Ala-Phe-pNA] (H-Ala-Ala-Phe-pNA) was tested. Which “hydrolysis” value did it give?
Answer: none of these was hydrolysed

Question: Which “hydrolysis” value does the source give for `CC(C)C[C@H](NC(=O)[C@@H]1CCCN1C(=O)[C@H](C)NC(=O)[C@H](C)NC(=O)CCC(=O)O)C(=O)Nc1ccc([N+](=O)[O-])cc1` [N-suc-Ala-Ala-Pro-Leu-pNA] (Suc-AAPL-pNA) here?
Answer: none of these was hydrolysed

Question: For `C[C@H](N)C(=O)NCC(=O)Nc1ccc([N+](=O)[O-])cc1` [H-Ala-Gly-pNA] (H-Ala-Gly-pNA), which “hydrolysis” value is on record?
Answer: none of these was hydrolysed

Question: For N-met-Ala-Pro-Val-pNA, which “hydrolysis” value is on record?
Answer: none of these was hydrolysed

Question: How did the “hydrolysis” value turn out when `C[C@H](N)C(=O)Nc1ccc([N+](=O)[O-])cc1` [H-Ala-pNA] was run?
Answer: none of these was hydrolysed

Question: With `CC(C)[C@H](NC(=O)[C@H](Cc1ccccc1)NC(=O)OCc1ccccc1)C(=O)N[C@@H](CCCNC(=N)N)C(=O)Nc1ccc([N+](=O)[O-])cc1` [Z-Phe-Val-Arg-pNA] (Cbz-Phe-Val-Arg-pNA) as the compound, how does the “hydrolysis” value read?
Answer: none of these was hydrolysed

Question: How did the “hydrolysis” value turn out when `N=C(N)NCCC[C@H](NC(=O)OCc1ccccc1)C(=O)Nc1ccc([N+](=O)[O-])cc1` [Z-Arg-pNA] was run?
Answer: none of these was hydrolysed

Question: For `NC(N)=NCCC[C@H](NC(=O)[C@H](Cc1ccccc1)NC(=O)OCc1ccccc1)C(=O)Nc1ccc([N+](=O)[O-])cc1` [Z-Phe-Arg-pNA] (Cbz-Phe-Arg-pNA), which “hydrolysis” value is on record?
Answer: none of these was hydrolysed

Question: How did the “hydrolysis” value turn out when `NCC(=O)NCC(=O)Nc1ccc([N+](=O)[O-])cc1` [H-Gly-Gly-pNA] (H-Gly-Gly-pNA) was run?
Answer: none of these was hydrolysed

Question: How did the “hydrolysis” value turn out when `C[C@H](NC(=O)CCC(=O)O)C(=O)N[C@@H](C)C(=O)N1CCC[C@H]1C(=O)N[C@@H](CCC(=O)O)C(=O)Nc1ccc([N+](=O)[O-])cc1` [N-suc-Ala-Ala-Pro-Glu-pNA] (Suc-AAPE-pNA) was run?
Answer: none of these was hydrolysed

Question: For `CC(C)C[C@H](NC(=O)OCc1ccccc1)C(=O)N[C@@H](CC(C)C)C(=O)N[C@@H](CCC(=O)O)C(=O)Nc1ccc([N+](=O)[O-])cc1` [Z-Leu-Leu-Glu-pNA] (Cbz-Leu-Leu-Glu-pNA), which “hydrolysis” value is on record?
Answer: none of these was hydrolysed

Question: For `NCCCC[C@H](NC(=O)[C@H](Cc1ccc(O)cc1)NC(=O)OCc1ccccc1)C(=O)N[C@@H](CCCN=C(N)N)C(=O)Nc1ccc([N+](=O)[O-])cc1` [Z-Tyr-Lys-Arg-pNA] (Cbz-Tyr-Lys-Arg-pNA), which “hydrolysis” value is on record?
Answer: none of these was hydrolysed

Question: Which “hydrolysis” value does the source give for `NC(N)=NCCCC(NC(=O)c1ccccc1)C(=O)Nc1ccc([N+](=O)[O-])cc1` (racemic) [Nα-benzoyl-DL-arginine-pNA] here?
Answer: none of these was hydrolysed

Question: How did the “hydrolysis” value turn out when `CC(C)[C@H](NC(=O)[C@H](C)NC(=O)[C@H](C)NC(=O)CCC(=O)O)C(=O)N[C@@H](C)C(=O)Nc1ccc([N+](=O)[O-])cc1` [N-suc-Ala-Ala-Val-Ala-pNA] (Suc-AAVA-pNA) was run?
Answer: none of these was hydrolysed

Question: How did the “hydrolysis” value turn out when `N[C@@H](Cc1ccccc1)C(=O)Nc1ccc([N+](=O)[O-])cc1` [H-Phe-pNA] was run?
Answer: none of these was hydrolysed

Question: Which “hydrolysis” value does the source give for `N=C(N)NCCC[C@H](NC(=O)[C@H](CCCCN)NC(=O)OCc1ccccc1)C(=O)Nc1ccc([N+](=O)[O-])cc1` [Z-Lys-Arg-pNA] (Cbz-Lys-Arg-pNA) here?
Answer: none of these was hydrolysed

Question: Which “hydrolysis” value does the source give for `C[C@H](N)C(=O)NCC(=O)N[C@@H](CCCNC(=N)N)C(=O)Nc1ccc([N+](=O)[O-])cc1` [H-Ala-Gly-Arg-pNA] (H-Ala-Gly-Arg-pNA) here?
Answer: none of these was hydrolysed
